Measured values: PubChem BioAssay AID1918958 (Molecular Pharmacology Branch, DTP, NCI, 2023)

Tested on: NCI-H196 complex spheroid viability
Assay: Anticancer human tumor NCI-H196 cell line growth inhibition [LSD1];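 further: spheroids exposed to agents for 7 days before readout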;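 on viability, T/C: 100% = DMSO vehicle control viability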
Conditions: for IC50: curve of first compound; for viability, T/C: stronger effect = lower value
Procedure, shortened: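 Complex spheroids of tumor cells with HUVEC and human MSCs, exposed to iadademstat combined with other agents. Each agent tested in half-log steps from near clinical Cmax (else 10 microM top), DMSO ≤0.25%.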

With `CC1(C)CCC(CN2CCN(c3ccc(C(=O)NS(=O)(=O)c4ccc(NCC5CCOCC5)c([N+](=O)[O-])c4)c(Oc4cnc5[nH]ccc5c4)c3)CC2)=C(c2ccc(Cl)cc2)C1` + NC1CC1c1ccc(-c2cccc(O)c2)cc1 the IC50 (second compound 0.1 µM) was 5.68 µM, the IC50 (second compound 0.316 µM) was 5.2 µM and the IC50 (second compound 1 µM) was 5.54 µM. It also gave an IC50 (second compound 3.16 µM) of 5.49 µM, an IC50 (second compound 10 µM) of 4.93 µM and a viability, T/C (second compound 0.1 µM, first compound 0.0316 µM) of 91.2%. It also gave a viability, T/C (second compound 0.1 µM, first compound 0.1 µM) of 99.9%, a viability, T/C (second compound 0.1 µM, first compound 0.316 µM) of 99% and a viability, T/C (second compound 0.1 µM, first compound 1 µM) of 84.2%. The viability, T/C (second compound 0.1 µM, first compound 3.16 µM) was 85.7%, the viability, T/C (second compound 0.1 µM, first compound 10 µM) was 16.9% and the viability, T/C (second compound 0.316 µM, first compound 0.0316 µM) was 98.6%. The viability, T/C (second compound 0.316 µM, first compound 0.1 µM) was 101%, the viability, T/C (second compound 0.316 µM, first compound 0.316 µM) was 87.1% and the viability, T/C (second compound 0.316 µM, first compound 1 µM) was 84%. The viability, T/C (second compound 0.316 µM, first compound 3.16 µM) was 79.2%, the viability, T/C (second compound 0.316 µM, first compound 10 µM) was 16.1% and the viability, T/C (second compound 1 µM, first compound 0.0316 µM) was 94.3%. It also gave a viability, T/C (second compound 1 µM, first compound 0.1 µM) of 97.4%, a viability, T/C (second compound 1 µM, first compound 0.316 µM) of 95.6% and a viability, T/C (second compound 1 µM, first compound 1 µM) of 95.7%. The viability, T/C (second compound 1 µM, first compound 3.16 µM) was 79.2%, the viability, T/C (second compound 1 µM, first compound 10 µM) was 19% and the viability, T/C (second compound 3.16 µM, first compound 0.0316 µM) was 96.5%. It also gave a viability, T/C (second compound 3.16 µM, first compound 0.1 µM) of 105%, a viability, T/C (second compound 3.16 µM, first compound 0.316 µM) of 101% and a viability, T/C (second compound 3.16 µM, first compound 1 µM) of 84.8%. It also gave a viability, T/C (second compound 3.16 µM, first compound 3.16 µM) of 80.6%, a viability, T/C (second compound 3.16 µM, first compound 10 µM) of 20% and a viability, T/C (second compound 10 µM, first compound 0.0316 µM) of 94.9%. It also gave a viability, T/C (second compound 10 µM, first compound 0.1 µM) of 95.6%, a viability, T/C (second compound 10 µM, first compound 0.316 µM) of 97.3% and a viability, T/C (second compound 10 µM, first compound 1 µM) of 92.1%. For the same compound, the viability, T/C (second compound 10 µM, first compound 3.16 µM) was 72.5% and the viability, T/C (second compound 10 µM, first compound 10 µM) was 14.2%.

With `CCN(c1cc(-c2ccc(CN3CCOCC3)cc2)cc(C(=O)NCc2c(C)cc(C)[nH]c2=O)c1C)C1CCOCC1` + NC1CC1c1ccc(-c2cccc(O)c2)cc1 the IC50 (second compound 0.1 µM) was > 3 µM, the IC50 (second compound 0.316 µM) was > 3 µM and the IC50 (second compound 1 µM) was > 3 µM. For the same compound, the IC50 (second compound 3.16 µM) was > 3 µM, the IC50 (second compound 10 µM) was > 3 µM and the viability, T/C (second compound 0.1 µM, first compound 0.00949 µM) was 93.6%. For the same compound, the viability, T/C (second compound 0.1 µM, first compound 0.03 µM) was 91.8%, the viability, T/C (second compound 0.1 µM, first compound 0.0949 µM) was 98% and the viability, T/C (second compound 0.1 µM, first compound 0.3 µM) was 108%. It also gave a viability, T/C (second compound 0.1 µM, first compound 0.949 µM) of 107%, a viability, T/C (second compound 0.1 µM, first compound 3 µM) of 118% and a viability, T/C (second compound 0.316 µM, first compound 0.00949 µM) of 94.5%. For the same compound, the viability, T/C (second compound 0.316 µM, first compound 0.03 µM) was 97.8%, the viability, T/C (second compound 0.316 µM, first compound 0.0949 µM) was 113% and the viability, T/C (second compound 0.316 µM, first compound 0.3 µM) was 104%. The viability, T/C (second compound 0.316 µM, first compound 0.949 µM) was 110%, the viability, T/C (second compound 0.316 µM, first compound 3 µM) was 110% and the viability, T/C (second compound 1 µM, first compound 0.00949 µM) was 97.4%. It also gave a viability, T/C (second compound 1 µM, first compound 0.03 µM) of 102%, a viability, T/C (second compound 1 µM, first compound 0.0949 µM) of 102% and a viability, T/C (second compound 1 µM, first compound 0.3 µM) of 106%. The viability, T/C (second compound 1 µM, first compound 0.949 µM) was 116%, the viability, T/C (second compound 1 µM, first compound 3 µM) was 112% and the viability, T/C (second compound 3.16 µM, first compound 0.00949 µM) was 98.4%. The viability, T/C (second compound 3.16 µM, first compound 0.03 µM) was 99%, the viability, T/C (second compound 3.16 µM, first compound 0.0949 µM) was 101% and the viability, T/C (second compound 3.16 µM, first compound 0.3 µM) was 102%. The viability, T/C (second compound 3.16 µM, first compound 0.949 µM) was 98.9%, the viability, T/C (second compound 3.16 µM, first compound 3 µM) was 103% and the viability, T/C (second compound 10 µM, first compound 0.00949 µM) was 98.6%. It also gave a viability, T/C (second compound 10 µM, first compound 0.03 µM) of 109%, a viability, T/C (second compound 10 µM, first compound 0.0949 µM) of 104% and a viability, T/C (second compound 10 µM, first compound 0.3 µM) of 104%. It also gave a viability, T/C (second compound 10 µM, first compound 0.949 µM) of 105% and a viability, T/C (second compound 10 µM, first compound 3 µM) of 92.9%.
